Results reported in patent publication US8178091B2, “Compositions and methods for the treatment of respiratory disorders” (University of Washington, priority 2007, dated 2012).

Test system: lung fibroblasts
Assay: IGF-1 expression in lung fibroblasts
Format: cell-based
Conditions: not shown
From the text: IGF-1 was implicated as a fibroblast mitogen in BALF from patients with sarcoidosis (Allen et al., Am J Respir Cell Mol Biol 19:250-258 (1998)) and systemic sclerosis (Harrison et al., Clin Sci (Lond) 86:141-148 (1994)). […] In the experiments described herein, IGF-1 mediated cell survival and migration, but not proliferation of normal lung fibroblasts through IGF-1R. The prior studies used either the fetal fibroblast cell line IMR-90 or human fetal embryonic fibroblasts (HFL-1) to examine the proliferative response (Allen et al., Am J Respir Cell Mol Biol 19:250-258 (1998); Harrison et al., Clin Sci (Lond) 86:141-148 (1994)). In contrast, the studies described herein used early passage primary adult lung fibroblasts, which may account for differences in results. In addition, the mitogenic response to IGF in the earlier studies was determined by immunodepletion of IGF from BALF (Allen et al., Am J Respir Cell Mol Biol 19:250-258 (1998); Harrison et al., Clin Sci (Lond) 86:141-148 (1994)). Without wishing to be bound by theory, it is thought that activation of fibroblasts by other growth factors or cytokines such as TGFβ1 in BALF may be necessary for the pro-proliferative effect of IGF (Scarpa et al., Peptides 26:2201-2210 (2005); Danielpour and Song, Cytokine & growth factor reviews 17:59-74 (2006)).

TGFβ1: growth factor, mediator of fibrosis
IGF-1 expression in lung fibroblasts: significantly upregulated IGF-1 expression
